Assay results published in the supplement of paper PMC11451515.

How the values were obtained:
Details in all cases: 48 h
SEM cells [1] = assay: cell viability relative to DMSO control; higher = less cytotoxic
How it was run: (§1)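 Cells were incubated for 48 h at 37°C before CellTiter-Glo One luminescence was read. The cells were NOMO1 or SEM (500 cells/well) or P12-Ichikawa (1000 cells/well) leukemia cells, adapted for at least four passages in each medium and seeded in 1536-well plates (5 μl). Dosing used library compounds in DMSO applied by pin over 11 threefold points, 47 μM to 0.79 nM. Viability is the per-plate percentage of DMSO wells, with cell-free wells as background.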

NOMO1 [2] = assay: as above
How it was run: as §1

P12-Ichikawa [3] = assay: as above
How it was run: as §1

SEM cells [4] = assay: AUC of viability dose-response curve (% viability x log10 dose units); higher = less sensitive
How it was run: (§2)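 Leukemia cells adapted to each medium were seeded in 1536-well plates (500 or 1000 cells/well). They were dosed with library compounds in DMSO at 11 threefold doses, 47 μM to 0.79 nM, for 48 h at 37°C. CellTiter-Glo One luminescence was normalised per plate to DMSO and cell-free wells. Area under the curve was integrated by trapezoidal rule over log10 doses on a four-parameter log-logistic fit; curves exceeding full viability were scaled and curves failing quality control removed.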

NOMO1 [5] = assay: as above
How it was run: as §2

P12-Ichikawa [6] = assay: as above
How it was run: as §2

NCCc1ccc(O)c(O)c1
cell viability [%]
Details	NOMO1 [2]	P12-Ichikawa [3]	SEM cells [1]
HPLM + 10% dialyzed FBS, 0.000781 µM	118	–	119
HPLM + 10% dialyzed FBS, 0.00234 µM	124	–	137
HPLM + 10% dialyzed FBS, 0.00702 µM	123	–	121
HPLM + 10% dialyzed FBS, 0.0211 µM	119	–	133
HPLM + 10% dialyzed FBS, 0.0632 µM	131	–	130
HPLM + 10% dialyzed FBS, 0.19 µM	112	–	132
HPLM + 10% dialyzed FBS, 0.569 µM	131	–	131
HPLM + 10% dialyzed FBS, 1.71 µM	125	–	110
HPLM + 10% dialyzed FBS, 5.12 µM	104	–	109
HPLM + 10% dialyzed FBS, 15.4 µM	27.5	–	86
HPLM + 10% dialyzed FBS, 46.1 µM	7.83	–	8.51
RPMI 5 mM glucose + 10% FBS, 0.000781 µM	120	–	113
RPMI 5 mM glucose + 10% FBS, 0.00234 µM	112	–	136
RPMI 5 mM glucose + 10% FBS, 0.00702 µM	115	–	123
RPMI 5 mM glucose + 10% FBS, 0.0211 µM	127	–	123
RPMI 5 mM glucose + 10% FBS, 0.0632 µM	121	–	127
RPMI 5 mM glucose + 10% FBS, 0.19 µM	124	–	139
RPMI 5 mM glucose + 10% FBS, 0.569 µM	113	–	122
RPMI 5 mM glucose + 10% FBS, 1.71 µM	110	–	96.5
RPMI 5 mM glucose + 10% FBS, 5.12 µM	110	–	128
RPMI 5 mM glucose + 10% FBS, 15.4 µM	54.3	–	107
RPMI 5 mM glucose + 10% FBS, 46.1 µM	14	–	18.6
RPMI 5 mM glucose + 10% dialyzed FBS, 0.000781 µM	–	128	99
RPMI 5 mM glucose + 10% dialyzed FBS, 0.00234 µM	–	124	124
RPMI 5 mM glucose + 10% dialyzed FBS, 0.00702 µM	–	123	107
RPMI 5 mM glucose + 10% dialyzed FBS, 0.0211 µM	–	126	111
RPMI 5 mM glucose + 10% dialyzed FBS, 0.0632 µM	–	131	123
RPMI 5 mM glucose + 10% dialyzed FBS, 0.19 µM	–	123	111
RPMI 5 mM glucose + 10% dialyzed FBS, 0.569 µM	–	129	109
RPMI 5 mM glucose + 10% dialyzed FBS, 1.71 µM	–	121	105
RPMI 5 mM glucose + 10% dialyzed FBS, 5.12 µM	–	121	107
RPMI 5 mM glucose + 10% dialyzed FBS, 15.4 µM	–	124	95.2
RPMI 5 mM glucose + 10% dialyzed FBS, 46.1 µM	–	110	11.5

AUC of viability dose-response curve
Details	NOMO1 [5]	P12-Ichikawa [6]	SEM cells [4]
HPLM + 10% dialyzed FBS	410	464	431
RPMI 5 mM glucose + 10% FBS	426	463	450
RPMI 5 mM glucose + 10% dialyzed FBS	429	474	449

O=C1CCCC(=O)C1C(=O)c1ccc(C(F)(F)F)cc1[N+](=O)[O-]
cell viability [%]
Details	NOMO1 [2]	P12-Ichikawa [3]	SEM cells [1]
HPLM + 10% dialyzed FBS, 0.000781 µM	138	106	112
HPLM + 10% dialyzed FBS, 0.00234 µM	110	106	115
HPLM + 10% dialyzed FBS, 0.00702 µM	105	108	100
HPLM + 10% dialyzed FBS, 0.0211 µM	107	118	107
HPLM + 10% dialyzed FBS, 0.0632 µM	103	112	108
HPLM + 10% dialyzed FBS, 0.19 µM	106	113	108
HPLM + 10% dialyzed FBS, 0.569 µM	111	106	114
HPLM + 10% dialyzed FBS, 1.71 µM	118	105	102
HPLM + 10% dialyzed FBS, 5.12 µM	113	110	106
HPLM + 10% dialyzed FBS, 15.4 µM	93.6	98.3	113
HPLM + 10% dialyzed FBS, 46.1 µM	54.3	100	108
RPMI 5 mM glucose + 10% FBS, 0.000781 µM	102	123	109
RPMI 5 mM glucose + 10% FBS, 0.00234 µM	105	116	103
RPMI 5 mM glucose + 10% FBS, 0.00702 µM	99.2	114	112
RPMI 5 mM glucose + 10% FBS, 0.0211 µM	99.9	123	98.4
RPMI 5 mM glucose + 10% FBS, 0.0632 µM	104	113	109
RPMI 5 mM glucose + 10% FBS, 0.19 µM	98.4	109	97.5
RPMI 5 mM glucose + 10% FBS, 0.569 µM	103	119	112
RPMI 5 mM glucose + 10% FBS, 1.71 µM	99.4	110	101
RPMI 5 mM glucose + 10% FBS, 5.12 µM	98.4	111	108
RPMI 5 mM glucose + 10% FBS, 15.4 µM	99.4	109	85.9
RPMI 5 mM glucose + 10% FBS, 46.1 µM	92.8	105	86
RPMI 5 mM glucose + 10% dialyzed FBS, 0.000781 µM	103	113	105
RPMI 5 mM glucose + 10% dialyzed FBS, 0.00234 µM	108	113	104
RPMI 5 mM glucose + 10% dialyzed FBS, 0.00702 µM	105	107	110
RPMI 5 mM glucose + 10% dialyzed FBS, 0.0211 µM	90.1	110	110
RPMI 5 mM glucose + 10% dialyzed FBS, 0.0632 µM	92	115	127
RPMI 5 mM glucose + 10% dialyzed FBS, 0.19 µM	111	110	106
RPMI 5 mM glucose + 10% dialyzed FBS, 0.569 µM	105	108	111
RPMI 5 mM glucose + 10% dialyzed FBS, 1.71 µM	113	110	129
RPMI 5 mM glucose + 10% dialyzed FBS, 5.12 µM	96.7	108	113
RPMI 5 mM glucose + 10% dialyzed FBS, 15.4 µM	95.3	104	115
RPMI 5 mM glucose + 10% dialyzed FBS, 46.1 µM	92.6	99.5	102

AUC of viability dose-response curve
Details	NOMO1 [5]	P12-Ichikawa [6]	SEM cells [4]
HPLM + 10% dialyzed FBS	403	465	474
RPMI 5 mM glucose + 10% FBS	471	450	464
RPMI 5 mM glucose + 10% dialyzed FBS	463	468	466

N#C/C(=C1/Nc2ccccc2S1)c1ccnc(OCc2ccc(CN3CCOCC3)cc2)n1
cell viability [%]
Details	NOMO1 [2]	P12-Ichikawa [3]	SEM cells [1]
HPLM + 10% dialyzed FBS, 0.000781 µM	104	106	103
HPLM + 10% dialyzed FBS, 0.00234 µM	120	105	97.2
HPLM + 10% dialyzed FBS, 0.00702 µM	97.1	110	112
HPLM + 10% dialyzed FBS, 0.0211 µM	127	112	101
HPLM + 10% dialyzed FBS, 0.0632 µM	122	110	109
HPLM + 10% dialyzed FBS, 0.19 µM	122	119	108
HPLM + 10% dialyzed FBS, 0.569 µM	107	109	106
HPLM + 10% dialyzed FBS, 1.71 µM	84.9	110	100
HPLM + 10% dialyzed FBS, 5.12 µM	86	105	121
HPLM + 10% dialyzed FBS, 15.4 µM	25.2	40.1	108
HPLM + 10% dialyzed FBS, 46.1 µM	27.5	37.1	99.3
RPMI 5 mM glucose + 10% FBS, 0.000781 µM	104	103	114
RPMI 5 mM glucose + 10% FBS, 0.00234 µM	109	105	98.1
RPMI 5 mM glucose + 10% FBS, 0.00702 µM	105	116	107
RPMI 5 mM glucose + 10% FBS, 0.0211 µM	117	109	115
RPMI 5 mM glucose + 10% FBS, 0.0632 µM	113	111	99.4
RPMI 5 mM glucose + 10% FBS, 0.19 µM	115	109	115
RPMI 5 mM glucose + 10% FBS, 0.569 µM	109	118	115
RPMI 5 mM glucose + 10% FBS, 1.71 µM	101	109	117
RPMI 5 mM glucose + 10% FBS, 5.12 µM	103	102	102
RPMI 5 mM glucose + 10% FBS, 15.4 µM	13.4	28.8	110
RPMI 5 mM glucose + 10% FBS, 46.1 µM	13.7	33.1	87.7
RPMI 5 mM glucose + 10% dialyzed FBS, 0.000781 µM	112	101	85
RPMI 5 mM glucose + 10% dialyzed FBS, 0.00234 µM	105	106	84.4
RPMI 5 mM glucose + 10% dialyzed FBS, 0.00702 µM	96	106	118
RPMI 5 mM glucose + 10% dialyzed FBS, 0.0211 µM	120	93.1	110
RPMI 5 mM glucose + 10% dialyzed FBS, 0.0632 µM	109	105	111
RPMI 5 mM glucose + 10% dialyzed FBS, 0.19 µM	114	104	100
RPMI 5 mM glucose + 10% dialyzed FBS, 0.569 µM	111	108	113
RPMI 5 mM glucose + 10% dialyzed FBS, 1.71 µM	99	107	113
RPMI 5 mM glucose + 10% dialyzed FBS, 5.12 µM	86	102	104
RPMI 5 mM glucose + 10% dialyzed FBS, 15.4 µM	18	44.5	109
RPMI 5 mM glucose + 10% dialyzed FBS, 46.1 µM	14.6	38.6	87.8

AUC of viability dose-response curve
Details	NOMO1 [5]	P12-Ichikawa [6]	SEM cells [4]
HPLM + 10% dialyzed FBS	399	429	468
RPMI 5 mM glucose + 10% FBS	412	422	472
RPMI 5 mM glucose + 10% dialyzed FBS	407	434	461
